Experimental data taken from PMC5458211, “Mitochondrial VDAC1-based peptides: Attacking oncogenic properties in glioblastoma” (Oncotarget, 2017).
Non-standard residues stand in square brackets, D forms with d. Residues, ends and D or L forms follow the SMILES beside them.

Columns and labels:
U-118MG cells = assay: Cell death by PI staining and flow cytometry, U-118MG; type: cell-based, human; details: 6 h at 37°C, serum-free medium, means ± SD (n=3), Fig 1H, read-out: IC50 for inducing cell death
Excerpt: Figure 1 VDAC1-based peptides induce dramatic cell death of several brain tumor-derived cell lines but to lesser extent in primary brain cells A. IHC staining of VDAC1 of human normal brain (n=13) or glioblastoma (n=41) in tissue array slides (Biomax), as described in Materials and methods available online in Supplemental information. Percentages of sections stained at the intensity indicated are shown. […] The VDAC1-derived sequences Δ(1-14)N-terminus and LP4 are in green and pink, respectively. The cell-penetrating peptides Antp and Tf are in orange and blue, respectively. The loop shape of LP4 stabilized by a tryptophan zipper is in purple. The amino acids of Δ(1-14)N-terminus, LP4 and Antp are in the D configuration. The sequences of D-LP4 and Retro-D-LP4 are presented below. C. […] Cells were harvested, washed twice with PBS and cell death was analyzed by propidium iodide (PI) staining and flow cytometry. […] Cells were harvested, washed twice with PBS and cell death was analyzed by PI staining and flow cytometry. […]
Cells (6×10^5 /ml) were incubated in 500 μl serum-free medium with the peptide of interest for 6 h at 37°C in the presence of 5% CO2. The cells were then trypsinized, centrifuged (1500xg, 5 min), washed with PBS and analyzed for cell death using propidium iodide (PI) staining and flow cytometer (Beckton-Dickinson, San Jose, CA) and BD CellQuest Pro software. […]

[1] = system: Cyto c release in U-87MG cells; assay: Cytochrome c release by immunofluorescence; type: cell-based, human; details: 10 μM, 3 h, serum-free medium
Procedure: Figure 2 Mode of action of VDAC1-based peptides – interacting with- and detaching HK, releasing Cyto c, decreasing ATP level and inducing apoptosis A. Purified HK-II was fluorescently labeled using the NanoTemper protein-labeling Kit BLUE. […] Then, 3-5 μl of the samples were loaded into MST-grade glass capillaries and thermophoresis was measured using a Monolith-NT115 apparatus, as described in Materials and methods available online in Supplemental information. […] The final DMSO concentration in control and peptide-treated cells was 0.07%. Fixed cells were visualized using confocal microscopy (Olympus 1×81), as described in Materials and Methods available online in Supplemental information. […] The levels of HK in the supernatants were quantified and are presented as relative units. D. D-ΔN-Ter-Antp induces mitochondrial inner membrane depolarization analyzed as described in Materials and Methods available online in Supplemental information. […] Cells then were analyzed for Δψ using TMRM. Δψ is presented as percentage of control. […] Release of Cyto c from the mitochondria was analyzed by immunostaining using anti-Cyto c antibodies and confocal microscopy (Olympus 1×81) as described in Materials and Methods available online in Supplemental information. […] Quantification of apoptosis in control and peptide's treated cells are presented bellow the images. […]

SMILES	IC50 (U-118MG cells) [µM]	Cyto c release [1]
CC[C@@H](C)[C@@H](NC(=O)[C@@H](CCCCN)NC(=O)[C@H](NC(=O)[C@@H](CCC(N)=O)NC(=O)[C@@H](CCCNC(=N)N)NC(=O)[C@@H](CC(C)C)NC(=O)CNC(=O)[C@@H](Cc1ccccc1)NC(=O)CNC(=O)[C@@H](Cc1ccc(O)cc1)NC(=O)CNC(=O)[C@@H](CCCCN)NC(=O)[C@H](NC(=O)[C@@H](Cc1ccccc1)NC(=O)[C@H](NC(=O)[C@@H](CC(=O)O)NC(=O)[C@H](N)CCCNC(=N)N)C(C)C)[C@H](C)O)[C@H](C)CC)C(=O)N[C@H](Cc1c[nH]c2ccccc12)C(=O)N[C@H](Cc1ccccc1)C(=O)N[C@H](CCC(N)=O)C(=O)N[C@H](CC(N)=O)C(=O)N[C@H](CCCNC(=N)N)C(=O)N[C@H](CCCNC(=N)N)C(=O)N[C@H](CCSC)C(=O)N[C@H](CCCCN)C(=O)N[C@H](Cc1c[nH]c2ccccc12)C(=O)N[C@H](CCCCN)C(=O)N[C@H](CCCCN)C(=O)O [D-ΔN-Ter-Antp] (H-[dR][dD][dV][dF][dT][dK]G[dY]G[dF]G[dL][dR][dQ][dI][dK][dI][dW][dF][dQ][dN][dR][dR][dM][dK][dW][dK][dK]-OH; N-terminus and C-terminus assumed)	5 ± 0.6	partial Cyto c release
CC[C@H](C)[C@H](NC(=O)[C@H](C)NC(=O)[C@@H](N)Cc1c[nH]cn1)C(=O)N[C@@H](Cc1ccc(O)cc1)C(=O)N1CCC[C@H]1C(=O)N[C@@H](CCCNC(=N)N)C(=O)N[C@@H](Cc1c[nH]cn1)C(=O)N[C@@H](CO)C(=O)N[C@@H](Cc1c[nH]c2ccccc12)C(=O)N[C@H](C(=O)N[C@@H](Cc1c[nH]c2ccccc12)C(=O)N[C@@H](CCC(=O)O)C(=O)N[C@H](CCCCN)C(=O)N[C@H](CCCCN)C(=O)N[C@H](CC(C)C)C(=O)N[C@H](CCC(=O)O)C(=O)N[C@@H](C(=O)N[C@H](C)C(=O)N[C@@H](C(=O)N[C@H](CC(N)=O)C(=O)N[C@H](CC(C)C)C(=O)N[C@H](C)C(=O)N[C@H](Cc1c[nH]c2ccccc12)C(=O)N[C@@H](C(=O)N[C@H](C)C(=O)NCC(=O)N[C@H](CC(N)=O)C(=O)N[C@H](CO)C(=O)N[C@H](CC(N)=O)C(=O)N[C@@H](CCCCN)C(=O)N[C@@H](Cc1c[nH]c2ccccc12)C(=O)N[C@H](C(=O)N[C@@H](Cc1c[nH]c2ccccc12)C(=O)N[C@@H](CCCCN)C(=O)O)[C@@H](C)O)[C@H](C)O)C(C)C)[C@H](C)O)[C@@H](C)O [Tf-D-LP4]	1.7 ± 0.3	partial Cyto c release
